Measured values: patent publication US20250051316A1, “2-(ARYL-2-YL) […] […], PREPARATION METHOD THEREFOR AND APPLICATION THEREOF” (SHANGHAI HANSOH BIOMEDICAL CO., LTD., priority 2021, published 2025)
Marks after values point to notes of the source that are not given here.

Columns and labels:
[1] = Pharmacokinetic assay of Balb/c mice, plasma and brain, oral; assay type: in vivo; conditions: male, mouse, p.o. 5 mg/kg
Protocol: Test Example 3. Pharmacokinetic Assay of Balb/c Mice
Balb/c Mice were used as test animals. The pharmacokinetic behavior of the compounds of the present invention was studied in the plasma and brain of mice administered orally at the dose of 5 mg/kg.
Balb/c Mice, male, Shanghai Jiesijie Experimental Animal Co., Ltd., animal production license number (SCXK (Shanghai) 2013-0006 N0.311620400001794).
After fasting overnight, 24 male Balb/c mice were administered p.o. at a dose of 5 mg/kg and an administration volume of 10 mL/kg, respectively.
Drug formulation for oral administration: 0.5% CMC-Na (1% Tween 80).
After CO2 euthanasia of experimental animals, heart blood and brain tissue were collected at 0.25 h, 0.5 h, 1 h, 2 h, 4 h, 6 h, 8 h, and 24 h after administration. The blood was placed in EDTA-2K tubes and centrifuged at 4° C. and 6000 rpm for 6 minutes to separate plasma. The brain tissue was washed with pre-cooled PBS, dried, weighed, and stored at −80° C. The animals were feed 4 hours after administration.
1) 160 μL of acetonitrile was added to 40 μL of the plasma sample for precipitation, and then the mixture was centrifuged at 3500×g for 5-20 min.
2) 100 μL of the supernatant was taken to analyze the concentration of the test compound by LC/MS/MS.
• Liquid chromatography condition: Shimadzu LC-20AD pump • Mass spectrometry condition: AB Sciex API 4000 mass spectrometer • Chromatographic column: phenomenex Gemiu 5 μm C18 50×4.6 mm • Mobile phase: Eluent A was 0.10% formic acid in water, and Eluent B was acetonitrile • Flow rate: […] • Elution time: 0-4.0 minutes, the eluent is as follows:
The main pharmacokinetic parameters were calculated using WinNonlin8.1, and the results of the pharmacokinetic experiments in mouse are shown in the table below.

[2] = target: T1, TAAR1 receptor (Homo sapiens, UniProt Q96RJ0); experiment: Effect on cAMP content in cells which stably express TAAR1 receptor; assay type: cell-based
T1 construct: expressed in transfected cells
T1 sequence (Q96RJ0 1-339): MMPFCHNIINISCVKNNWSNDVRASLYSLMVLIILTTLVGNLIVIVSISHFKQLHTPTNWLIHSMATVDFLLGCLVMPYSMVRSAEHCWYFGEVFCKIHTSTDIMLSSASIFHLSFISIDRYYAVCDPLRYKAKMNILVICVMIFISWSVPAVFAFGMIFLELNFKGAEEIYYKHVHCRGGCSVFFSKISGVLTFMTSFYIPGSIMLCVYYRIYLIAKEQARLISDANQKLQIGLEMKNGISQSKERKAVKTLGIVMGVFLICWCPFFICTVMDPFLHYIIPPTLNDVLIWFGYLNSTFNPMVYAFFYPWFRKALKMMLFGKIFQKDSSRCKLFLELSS
Protocol: Test Example1. Determination of the effect of the present compound on cAMP content in cells which stably express TAAR1 receptor
Determination of the activation effect of compounds on TAAR1 receptors.
• 1) Preparation of experimental buffer: 1*HBSS+20 mM HEPES+0.1% BSA+500 μM IBMX. • 2) Complete medium: • Ham's F12K+10% Fetal Bovine Serum+1*Penicillin-Streptomycin+200 μg/mL Hygromycin B for CHO • DMEM+10% Fetal Bovine Serum+1*Penicillin-Streptomycin+200 μg/mL Hygromycin B for HEK293 • 3) TAAR1 cell line was cultured in complete medium at 37° C. and 5% CO2; After TrypLE digestion, the cells were resuspended in the experimental buffer and seeded into a 384 cell culture plate with a density of 8000 cells/15 ul/well. • 4) The compound was diluted with experimental buffer and added 5 μL to each well to culture at 37° C. for 30 minutes. • 5) cAMP-d2 and Anti cAMP Eu3+ were freeze thaw, and diluted 20 times with lysis buffer; 10 μL cAMP-d2 was added to the experimental well, and then 10 μL Anti cAMP Eu3+ was added into the experimental well; the reaction plate was centrifuged at 200 g for 30 seconds at room temperature, and stand at 25° C. for 1 hour; data was collected by Envision.
[formula] • 5) EC50 of compounds was calculated using GraphPad nonlinear fitting formula:
[formula] • X: Log value of the compound concentration; Y: Activation %

[3] = test system: C57BL/6 mice, high spontaneous activity induced by phencyclidine (PCP); experiment: High spontaneous activity model of mice induced by phencyclidine (PCP); assay type: in vivo; conditions: 60 minutes after modeling
Text: Test Example 2. Pharmacodynamic Evaluation of the Present Compounds in Mice Model of High Spontaneous Activity Induced by Phencyclidine (PCP)
The purpose of the experiment is to evaluate the efficacy of compounds in a high spontaneous activity model of C57BL/6 mice induced by phencyclidine (PCP) using the spontaneous activity method.
C57BL/6 mice, provided by Shanghai Lingchang Biotechnology Co., Ltd., male, 6-8 weeks, 20-24 g, 36 mice.
The day before the experimental test, the animals were placed in the laboratory and acclimated for 8 hours.
On the day of adaptation, the animals were randomly grouped according to their weight.
The animals were weithed and treated with solvent control (20% HP-3-CD), compounds of the present invention (oral administration) respectively. 30 minutes later, modeling (intraperitoneal administration) was performed, and the animals were given physiological saline or phencyclidine, with dosage volume of 10 mL/kg.
After the administration, the animals were placed in observation box and the spontaneous activity was detected for 30 minutes. The moving distance (meters) of the animals in the observation box was counted every 5 minutes.
After 30 minutes, the animals were taken out for modeling and then placed in the observation box to test their spontaneous activity for 60 minutes. The moving distance (meters) of the animals in the observation box was counted every 5 minutes.
Excel software was used to collect data. A Two-Way ANOVA or One-Way ANOVA was conducted used Prism (Graph pad software, Inc.) software. p<0.05 was considered significant difference.

[4] = compound 3 mg/kg oral + PCP 5 mg/kg i.p.
[5] = compound 1 mg/kg oral + PCP 5 mg/kg i.p.

SMILES	AUC(0-t) ([1]; Brain) [ng·h/mL]	Cmax ([1]; Brain) [ng/mL]	Tmax ([1]; Brain) [min]	half-life ([1]; Brain) [min]	AUC(0-t) ([1]; Plasma) [ng·h/mL]	Cmax ([1]; Plasma) [ng/mL]	Tmax ([1]; Plasma) [min]	half-life ([1]; Plasma) [min]	EC50 [2] [nM]	Total distance (m, Mean ± SEM) 60 minutes [3, 4]	Total distance (m, Mean ± SEM) 60 minutes [3, 5]	Total distance (m, Mean ± SEM) 60 minutes ([3]; compound 10 mg/kg oral + PCP 5 mg/kg i.p.)
[2H]C1([2H])COC(c2cccc(C)n2)CN1 (single isomer, unassigned) [Example 10-2, 2-(6-Methylpyridin-2-yl)morpholin-5,5-d2]	12500	3540	30	150	5430	1320	15	144	5.4	152.6*** m		
[2H]C1([2H])CO[C@@H](c2ccc(F)cn2)CN1 (single isomer, unassigned) [Example 17-2, 2-(5-fluoropyridin-2-yl)morpholin-5,5-d2]	7500	3160	30		2630	1450	15	78	8.3	114.1*** m	140.1*** m	
[2H]C1([2H])CO[C@H](c2ccc(F)cc2)CN1 (single isomer, unassigned) [Example 33-1, 2-(4-Fluorophenyl)morpholin-5,5-d2]	15300	8360	15	192	5030	1970	15	192	7.9	126.3*** m	136.4*** m	83.23*** m
